Earlier results as cited in patent publication US20190202814A1, “PROCESSES FOR PREPARATION OF EMPAGLIFLOZIN” (CADILA HEALTHCARE LIMITED, priority 2015, published 2019).

Columns and labels:
[1] = crystalline solid

hygroscopicity [1]: non-hygroscopic | solubility in acetonitrile (acetonitrile): very slightly soluble | solubility in ethanol (ethanol): very slightly soluble | solubility in methanol (methanol): sparingly soluble | solubility in toluene (toluene): practically insoluble | solubility in water (water): very slightly soluble
SMILES: OC[C@H]1O[C@@H](c2ccc(Cl)c(Cc3ccc(O[C@H]4CCOC4)cc3)c2)[C@H](O)[C@@H](O)[C@@H]1O [Empagliflozin, (1S)-1,5-anhydro-1-{4-chloro-3-(4-[(3S)-tetrahydrofuran-3-yloxy]benzyl}phenyl)-D-glucitol]
